Data on 1 compound can be found in paper PMC12044326 (Clinical Pharmacology in Drug Development, 2025).

pKi: −log10 of the molar value.

Series [1] addresses T1, UGT1A9 (Homo sapiens, UniProt O60656).
T1 sequence (O60656 26-530): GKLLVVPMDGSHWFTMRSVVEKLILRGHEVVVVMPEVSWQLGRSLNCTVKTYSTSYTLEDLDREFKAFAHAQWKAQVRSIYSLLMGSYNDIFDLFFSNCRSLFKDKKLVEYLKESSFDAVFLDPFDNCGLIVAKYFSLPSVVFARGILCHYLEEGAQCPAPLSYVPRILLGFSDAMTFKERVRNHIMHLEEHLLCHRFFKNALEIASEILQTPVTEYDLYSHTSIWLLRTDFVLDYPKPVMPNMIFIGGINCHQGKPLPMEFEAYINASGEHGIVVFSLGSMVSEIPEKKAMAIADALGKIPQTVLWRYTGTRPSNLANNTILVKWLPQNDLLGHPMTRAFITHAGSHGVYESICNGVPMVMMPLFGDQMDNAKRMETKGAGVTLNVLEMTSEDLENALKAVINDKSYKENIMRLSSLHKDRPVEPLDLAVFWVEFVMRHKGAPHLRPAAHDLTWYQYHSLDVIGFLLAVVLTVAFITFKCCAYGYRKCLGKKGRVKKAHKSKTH
Kind of series: PBPK elimination inputs (retrograde model, fm, KM sensitivity). As to conditions: PBPK input.

Series [2] deals with T2, UGT2B4 (Homo sapiens, UniProt P06133).
T2 sequence (P06133 24-528): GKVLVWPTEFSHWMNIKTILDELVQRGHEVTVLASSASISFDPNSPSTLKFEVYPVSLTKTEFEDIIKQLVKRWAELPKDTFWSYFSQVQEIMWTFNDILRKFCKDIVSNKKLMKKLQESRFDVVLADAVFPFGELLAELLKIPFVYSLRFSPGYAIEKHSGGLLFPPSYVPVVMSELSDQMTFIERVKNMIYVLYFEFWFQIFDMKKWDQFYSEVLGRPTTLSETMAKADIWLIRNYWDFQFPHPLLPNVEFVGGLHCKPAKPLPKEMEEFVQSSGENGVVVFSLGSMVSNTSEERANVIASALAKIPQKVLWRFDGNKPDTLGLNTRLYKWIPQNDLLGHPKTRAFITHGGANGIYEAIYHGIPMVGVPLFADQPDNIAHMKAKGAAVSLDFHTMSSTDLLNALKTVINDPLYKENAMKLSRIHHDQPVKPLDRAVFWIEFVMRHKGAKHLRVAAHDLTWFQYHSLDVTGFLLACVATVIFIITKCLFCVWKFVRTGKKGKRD
The description is as above. As to conditions: PBPK input.

For the next series, the system named is CYP3A4. The series can be described thus: PBPK elimination inputs (retrograde model, fm). Further details: species or system human. The following applies: PBPK input.
The target in another series is T3, CYP2C8 (Homo sapiens, UniProt P10632).
T3 sequence (P10632 1-490): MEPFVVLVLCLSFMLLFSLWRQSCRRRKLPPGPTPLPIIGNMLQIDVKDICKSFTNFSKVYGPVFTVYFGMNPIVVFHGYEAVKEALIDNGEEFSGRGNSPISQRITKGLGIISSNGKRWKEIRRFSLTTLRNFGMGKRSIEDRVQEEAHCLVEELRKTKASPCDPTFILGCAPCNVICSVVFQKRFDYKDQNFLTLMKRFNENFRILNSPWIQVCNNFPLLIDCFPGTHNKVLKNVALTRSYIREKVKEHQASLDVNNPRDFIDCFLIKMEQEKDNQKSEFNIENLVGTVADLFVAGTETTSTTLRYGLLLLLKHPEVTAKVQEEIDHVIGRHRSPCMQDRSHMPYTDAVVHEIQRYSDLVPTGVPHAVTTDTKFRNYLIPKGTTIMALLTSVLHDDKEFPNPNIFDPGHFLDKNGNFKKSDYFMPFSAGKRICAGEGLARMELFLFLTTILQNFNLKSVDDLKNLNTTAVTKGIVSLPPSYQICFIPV
The series can be described thus: Reversible CYP inhibition in human liver microsomes. For orientation: Liver microsomes are a subcellular fraction often used to study metabolism.

In series [3] the target is T1, UGT1A9. As to conditions: both, 20 min, pH 7.4.
In the next series the target is CYP2C19 (Homo sapiens, UniProt P33261). Kind of series: Reversible CYP inhibition in human liver microsomes.
Chain of CYP2C19 (P33261 whole entry): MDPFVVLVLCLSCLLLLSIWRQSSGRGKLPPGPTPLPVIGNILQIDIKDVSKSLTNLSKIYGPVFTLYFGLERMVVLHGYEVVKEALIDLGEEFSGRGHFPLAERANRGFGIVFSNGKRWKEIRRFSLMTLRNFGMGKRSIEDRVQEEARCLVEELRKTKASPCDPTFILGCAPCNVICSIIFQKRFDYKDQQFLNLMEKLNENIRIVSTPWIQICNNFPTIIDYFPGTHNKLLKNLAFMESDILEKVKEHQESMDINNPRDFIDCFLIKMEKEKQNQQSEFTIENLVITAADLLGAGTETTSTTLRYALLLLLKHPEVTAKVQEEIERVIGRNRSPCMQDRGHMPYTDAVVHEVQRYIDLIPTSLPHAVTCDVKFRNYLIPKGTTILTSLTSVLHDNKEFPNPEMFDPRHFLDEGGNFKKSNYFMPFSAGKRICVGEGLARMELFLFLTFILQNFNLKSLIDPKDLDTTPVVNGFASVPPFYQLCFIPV
A further series concerns CYP2B6. As to conditions: hepatocytes.
The next series addresses CYP2C9 (Homo sapiens, UniProt P11712). Kind of series: Reversible CYP inhibition in human liver microsomes.
Series [4] concerns the target T2, UGT2B4. As to conditions: both, 20 min, pH 7.4.
The conditions of series [5]: cited from earlier work.
The next series addresses T4, OATP1B1 (Homo sapiens, UniProt Q9Y6L6).
T4 sequence (Q9Y6L6 1-691): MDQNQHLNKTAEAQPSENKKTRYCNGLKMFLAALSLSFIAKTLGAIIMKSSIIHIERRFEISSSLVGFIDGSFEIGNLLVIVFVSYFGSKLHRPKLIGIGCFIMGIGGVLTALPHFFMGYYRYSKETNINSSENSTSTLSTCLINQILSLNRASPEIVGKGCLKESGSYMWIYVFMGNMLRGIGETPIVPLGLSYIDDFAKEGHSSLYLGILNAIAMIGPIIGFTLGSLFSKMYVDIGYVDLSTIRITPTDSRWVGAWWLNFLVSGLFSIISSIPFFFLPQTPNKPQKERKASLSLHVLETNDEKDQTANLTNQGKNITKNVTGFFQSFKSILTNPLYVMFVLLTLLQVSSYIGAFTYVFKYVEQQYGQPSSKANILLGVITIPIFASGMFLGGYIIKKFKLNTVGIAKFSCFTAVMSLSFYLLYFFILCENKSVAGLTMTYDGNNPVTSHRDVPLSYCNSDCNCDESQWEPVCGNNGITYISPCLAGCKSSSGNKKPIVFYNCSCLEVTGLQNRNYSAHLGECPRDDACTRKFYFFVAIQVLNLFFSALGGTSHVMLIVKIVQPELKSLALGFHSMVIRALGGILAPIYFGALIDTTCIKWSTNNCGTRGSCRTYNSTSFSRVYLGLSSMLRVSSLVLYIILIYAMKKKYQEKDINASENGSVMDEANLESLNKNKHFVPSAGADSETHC

The mark [6] stands for this setting: 300 mg single oral dose, geometric mean, clinical ADME study, ref 5 of supplement.

Chain of CYP2C9 (P11712 whole entry): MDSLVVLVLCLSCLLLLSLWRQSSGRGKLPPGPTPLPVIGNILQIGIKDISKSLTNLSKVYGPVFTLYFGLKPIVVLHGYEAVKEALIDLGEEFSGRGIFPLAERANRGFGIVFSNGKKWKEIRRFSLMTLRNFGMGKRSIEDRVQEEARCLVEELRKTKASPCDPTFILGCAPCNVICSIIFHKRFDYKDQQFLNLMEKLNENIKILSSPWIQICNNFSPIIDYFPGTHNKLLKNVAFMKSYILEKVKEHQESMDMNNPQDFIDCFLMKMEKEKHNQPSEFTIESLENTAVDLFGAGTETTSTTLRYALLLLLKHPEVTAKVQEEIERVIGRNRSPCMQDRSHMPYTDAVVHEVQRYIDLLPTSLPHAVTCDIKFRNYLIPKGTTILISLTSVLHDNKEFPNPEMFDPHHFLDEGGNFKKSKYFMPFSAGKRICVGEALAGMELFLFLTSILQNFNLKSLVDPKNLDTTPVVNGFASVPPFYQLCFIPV
Procedure for CYP2B6: respectively; XenoTech) were treated once daily for 3 consecutive days and cultured according
to previously described methods.2-4 Each culture well was treated with supplemented modified Chee's medium (0.2 mL) containing 0.1% v/v d imethylsulfoxide (DM SO ; vehicle control),
μmol/L) or 1 of 3 known human CYP enzyme inducers (omeprazole 50 μmol/L, phenobarbital
Cultures were visualized with a
representative well from each treatment group was photographed with a PAXcam 5 (MIS, Inc.
Villa Park, IL, USA) digital camera to document morphological integrity.
β-mercaptoethanol (1:100), and the cell lysates were stored at −80°C. For each hepatocyte preparation, media from 3 wells per treatment group were aspirated, and 250 μL buf f er RLT was added to each well. The cell lysates were mixed by shaking (10 minutes at 800 rpm) and total RNA was isolated with a MagMAX-96 (Ambion/ Thermo Fisher Scientific) for Microarrays Kit using the RNeasy Mini Kit (Qiagen Inc., Germantown, MD, USA). The analysis of RNA integrity was carried out with the RNA 6000 Nano Assay Kit on an Agilent 2100 Bioanalyzer (Agilent Technologies, Inc., Santa Clara, CA, USA). […]
prepared samples were stored at −20°C prior to analysis by quantitative real-time (qRT)- […]

For orientation: pKi means the Ki on a negative log10 scale, so that one unit is a factor of ten. High values mean a low Ki, low ones a high Ki. `O=C(c1cccnc1-c1ccncc1)N1CCC(O)(Cc2ccccc2)CC1` [Soticlestat] showed a fmUGT1A9 at UGT1A9 [1] of 0.1. On UGT2B4 [2], the fmUGT2B4 came out at 0.8. The same compound gave a fmCYP3A with CYP3A4 of 0.1. The pKi was 4.84 on CYP2C8, 5.02 at CYP2C19 and 4.81 on CYP2C9. Besides, the values for the fumic on CYP2C8 (human), on CYP2C19 (human) and on CYP2C9 (human) were 0.98, 0.88 and 0.88, respectively. The “inhibition of CYP2C8” value at CYP2C8 (microsomes) is on record as “low double‐digit micromolar values”. In addition, the “fm of total UGT mediated glucuronidation via UGT1A9” value at UGT1A9 [3] is listed as around 10%. For the same compound, on CYP2C19 (microsomes), the “inhibition of CYP2C19” value is given as “low double‐digit micromolar values”. The “induction of CYP2B6” value with CYP2B6 is “nor did soticlestat induce”. Besides, in the series on major CYP enzymes, the “time‐ or metabolism‐dependent inhibition” value is given as “did not exhibit time‐ or metabolism‐dependent inhibition”. Moreover, the “inhibition of CYP2C9” value at CYP2C9 (microsomes) is “low double‐digit micromolar values”. Besides, the “fm of total UGT mediated glucuronidation via UGT2B4” value on UGT2B4 [4] was around 90%. The AUC0-inf observed in [5] (setting [6]) is 1294 ng·h/mL. Besides, in series [5] (setting [6]), the Cmax observed is on record as 995 ng/mL. Also, the tmax observed in series [5] (300 mg single oral dose, median, clinical ADME study, ref 5 of supplement) was 31.8 min. In addition, the “CLIV (mean IV clearance)” value in series [5] (IV microdose [14C] soticlestat 50 µg with oral 300 mg) is 28.7 L/h. The “CYP contribution to clearance” value in [5] (human radiolabeled ADME study) is recorded as 9.5%. For the same compound, in series [5] (human radiolabeled ADME study), the “cleared by UGT metabolism” value was 90.5%. Further, the “CLR (mean renal clearance)” value in series [5] (single oral dose [14C] soticlestat 300 mg, healthy volunteers) is reported as 0.22 L/h. For the same compound, the “inhibition of OATP1B1” value at OATP1B1 is “did not demonstrate clinically relevant inhibition”.
